Laboratory results reported in ChEMBL document CHEMBL5247584, “Design, synthesis and evaluation of fused hybrids with acetylcholinesterase inhibiting and Nrf2 activating functions for Alzheimer's disease” (Eur J Med Chem, 2022).
Activity calls are given as the source filed them.

Legend:
HepG2-ARE-C8 = assay: Cytotoxicity against human HepG2-ARE-C8 cells assessed as reduction in cell viability at 5 and 20 uM measured for 24 hrs by MTT assay; assay type: functional, cell-based
[1] = […] in rat PC12 cells assessed as morphological changes; assay type: toxicity, cell-based; conditions: pc-12
Mus musculus [2] = assay: Antialzheimer activity against scopolamine-induced cognitive impairment ICR mouse model assessed as confuse escape tracks at 3 mg/kg, po administered once a day for 10 days and measured after 5 to 10 days by Morris water maze test; assay type: functional, organism-based; conditions: time 5-10 day
Mus musculus [3] = assay: Cognitive enhancing effect in amyloid beta (1 to 42)-induced ICR mouse model assessed as increase in ACh level at 10 mg/kg […] by ELISA; assay type: functional, organism-based
[4] = target: T1, Nuclear factor erythroid 2-related factor 2 (Rattus norvegicus) (UniProt O54968); assay: Activation of Nrf2 pathway in rat PC-12 cells assessed as fold increase in GCLM level at 20 uM measured at 2 hrs by qRT-PCR analysis; assay type: cell-based; conditions: PC12, filed as activator
T1 sequence (whole entry): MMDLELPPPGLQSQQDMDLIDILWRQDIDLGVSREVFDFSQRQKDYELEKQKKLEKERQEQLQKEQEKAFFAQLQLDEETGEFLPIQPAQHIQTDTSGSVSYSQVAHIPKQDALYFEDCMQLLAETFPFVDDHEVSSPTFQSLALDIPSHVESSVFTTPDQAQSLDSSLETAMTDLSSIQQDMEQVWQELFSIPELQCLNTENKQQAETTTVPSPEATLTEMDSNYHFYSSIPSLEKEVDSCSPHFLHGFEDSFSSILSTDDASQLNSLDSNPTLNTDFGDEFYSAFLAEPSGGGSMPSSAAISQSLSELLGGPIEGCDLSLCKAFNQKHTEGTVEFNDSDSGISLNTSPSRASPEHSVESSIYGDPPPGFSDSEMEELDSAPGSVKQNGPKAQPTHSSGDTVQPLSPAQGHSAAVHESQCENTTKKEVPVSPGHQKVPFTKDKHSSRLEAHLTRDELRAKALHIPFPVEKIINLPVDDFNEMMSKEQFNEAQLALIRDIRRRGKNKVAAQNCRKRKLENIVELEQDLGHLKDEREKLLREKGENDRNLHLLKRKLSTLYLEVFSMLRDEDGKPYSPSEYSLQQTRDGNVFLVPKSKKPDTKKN

[5] = target: T1, Nuclear factor erythroid 2-related factor 2 (Rattus norvegicus); assay: Activation of Nrf2 pathway in rat PC-12 cells assessed as fold increase in NQO1 level at 20 uM measured at 2 hrs by qRT-PCR analysis; assay type: cell-based; conditions: PC12, filed as activator
SH-SY5Y [6] = assay: Neuroprotective activity against Abeta1-42-induced human SH-SY5Y cells assessed as inhibition of ROS production preincubated for 24 hrs followed by Abeta1-42 induction and measured after 24 hrs by DCFH-DA staining based fluorescence microscopic anlaysis; assay type: functional, cell-based; conditions: dose 5.0 µM
Mus musculus [7] = assay: Antiinflammatory activity Abeta1-42-induced against ICR mouse assessed as increase in TGF-beta1 level at 20 mg/kg, po by ELISA analysis; assay type: functional, organism-based
Cholinesterase = Cholinesterase (Equus caballus, UniProt P81908); assay: Inhibition of equine serum BuChE using ATC and BTC iodide as substrate preincubated for 5 mins followed by substrate addition and measured after 2 mins by DTNB reagent based assay
[8] = Hepatotoxicity in […] assessed as effect on ALT level; assay type: toxicity, cell-based
Mus musculus [9] = assay: Antialzheimer activity against scopolamine-induced cognitive impairment ICR mouse model assessed as reduction in escape latency at 3 mg/kg, po administered once a day for 10 days and measured after 5 to 10 days by Morris water maze test; assay type: functional, organism-based; conditions: time 5-10 day
SH-SY5Y [10] = assay: Neuroprotective activity against Abeta1-42-induced human SH-SY5Y cells assessed as restoration of cell viability preinubated for 2 hrs followed by Abeta1-42 induction and measured after 24 hrs by MTT assay; assay type: functional, cell-based; conditions: time 26.0 hrs
[11] = target: T1, Nuclear factor erythroid 2-related factor 2 (Rattus norvegicus); assay: Activation of Nrf2 pathway in rat PC-12 cells assessed as fold increase in Nrf2 level at 20 uM measured at 2 hrs by qRT-PCR analysis; assay type: cell-based; conditions: PC12, filed as activator
Mus musculus [12] = assay: Antialzheimer activity against scopolamine-induced cognitive impairment ICR mouse model assessed as distance to reach target at 3 mg/kg, po administered once a day for 10 days and measured after 5 to 10 days by Morris water maze test; assay type: functional, organism-based; conditions: time 5-10 day
Mus musculus [13] = assay: Neuroprotective activity against Abeta1-42-induced ICR mouse at 10 mg/kg, po by ELISA analysis; assay type: functional, organism-based
[14] = target: T1, Nuclear factor erythroid 2-related factor 2 (Rattus norvegicus); assay: Activation of Nrf2 pathway in rat PC-12 cells assessed as increase in Nrf2 accumulation in nucleus at 20 uM measured after 1 to 5 hrs by Western blot analysis; assay type: cell-based; conditions: PC12, filed as activator, time 1-5 hrs
[15] = target: T1, Nuclear factor erythroid 2-related factor 2 (Rattus norvegicus); assay: Activation of Nrf2 pathway in rat PC-12 cells assessed as increase in NQO1 level at 20 uM measured after 6 hrs by Western blot analysis; assay type: cell-based; conditions: PC12, filed as activator
[16] = target: T1, Nuclear factor erythroid 2-related factor 2 (Rattus norvegicus); assay: Activation of Nrf2 pathway in rat PC-12 cells assessed as fold increase in Nrf2 expression level at 1 to 20 uM measured at 6 hrs by qRT-PCR analysis; assay type: cell-based; conditions: PC12, filed as activator, dose 1-20 µM
PC-12 = assay: Cytotoxicity against rat PC12 cells assessed as growth inhibition at 5 uM after 24 hrs by MTT assay; assay type: toxicity, cell-based; conditions: pc-12, 24 h
BV-2 [17] = assay: Antiinflammatory activity against LPS-injured mouse BV-2 cells assessed as decrease in IL-6 level at 5 uM by immunofluorescence staining based analysis; assay type: functional, cell-based
Acetylcholinesterase = Acetylcholinesterase (Electrophorus electricus, UniProt O42275); assay: Inhibition of electric eel AChE using ATC and BTC iodide as substrate preincubated for 5 mins followed by substrate addition and measured after 2 mins by DTNB reagent based assay
[18] = target: T1, Nuclear factor erythroid 2-related factor 2 (Rattus norvegicus); assay: Induction of Nrf2 nuclear translocation in rat PC12 cells measured for 12 hrs by FITC staining based confocal microscopic analysis; assay type: cell-based; conditions: filed as activator
[19] = target: T1, Nuclear factor erythroid 2-related factor 2 (Rattus norvegicus); assay: Activation of Nrf2 pathway in rat PC-12 cells assessed as fold increase in HO-1 level at 20 uM measured at 2 hrs by qRT-PCR analysis; assay type: cell-based; conditions: PC12, filed as activator
[20] = Hepatotoxicity in […] assessed as effect on AST level; assay type: toxicity, cell-based
Mus musculus [21] = assay: Antiinflammatory activity Abeta1-42-induced against ICR mouse assessed as increase in TGF-beta1 level at 10 mg/kg, po by ELISA analysis; assay type: functional, organism-based
[22] = target: T1, Nuclear factor erythroid 2-related factor 2 (Rattus norvegicus); assay: Activation of Nrf2 pathway in rat PC-12 cells assessed as increase in GCLM level at 20 uM measured after 6 hrs by Western blot analysis; assay type: cell-based; conditions: PC12, filed as activator
[23] = target: T1, Nuclear factor erythroid 2-related factor 2 (Rattus norvegicus); assay: Induction of Nrf2 pathway in rat PC12 cells assessed as fold increase in Nrf2 level at 20 uM measured after 6 hrs by Western blot analysis; assay type: cell-based; conditions: filed as activator
BV-2 [24] = assay: Antiinflammatory activity against LPS-injured mouse BV-2 cells assessed as decrease in IL-1beta level at 5 uM by immunofluorescence staining based analysis; assay type: functional, cell-based
Mus musculus [25] = assay: Cognitive enhancing effect in amyloid beta (1 to 42)-induced ICR mouse model assessed as increase in ACh level at 20 mg/kg […] by ELISA; assay type: functional, organism-based

Sequence of Acetylcholinesterase (O42275 whole entry): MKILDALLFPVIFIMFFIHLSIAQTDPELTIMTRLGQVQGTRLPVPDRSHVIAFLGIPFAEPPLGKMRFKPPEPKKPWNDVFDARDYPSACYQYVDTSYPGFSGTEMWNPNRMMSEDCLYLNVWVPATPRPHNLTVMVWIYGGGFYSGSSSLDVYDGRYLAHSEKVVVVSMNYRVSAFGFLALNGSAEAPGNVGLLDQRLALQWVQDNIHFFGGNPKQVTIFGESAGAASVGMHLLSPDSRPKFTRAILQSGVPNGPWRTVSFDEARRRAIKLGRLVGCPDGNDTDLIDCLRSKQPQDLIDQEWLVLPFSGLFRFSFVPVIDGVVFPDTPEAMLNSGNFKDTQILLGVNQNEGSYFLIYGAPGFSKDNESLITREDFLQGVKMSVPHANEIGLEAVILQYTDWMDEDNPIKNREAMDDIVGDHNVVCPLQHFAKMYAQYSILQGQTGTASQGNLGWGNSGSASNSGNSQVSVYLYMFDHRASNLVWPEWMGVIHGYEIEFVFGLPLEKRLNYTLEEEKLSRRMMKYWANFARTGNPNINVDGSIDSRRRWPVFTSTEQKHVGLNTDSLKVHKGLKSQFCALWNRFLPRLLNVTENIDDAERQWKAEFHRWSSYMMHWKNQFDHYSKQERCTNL
Sequence of Cholinesterase (P81908 whole entry): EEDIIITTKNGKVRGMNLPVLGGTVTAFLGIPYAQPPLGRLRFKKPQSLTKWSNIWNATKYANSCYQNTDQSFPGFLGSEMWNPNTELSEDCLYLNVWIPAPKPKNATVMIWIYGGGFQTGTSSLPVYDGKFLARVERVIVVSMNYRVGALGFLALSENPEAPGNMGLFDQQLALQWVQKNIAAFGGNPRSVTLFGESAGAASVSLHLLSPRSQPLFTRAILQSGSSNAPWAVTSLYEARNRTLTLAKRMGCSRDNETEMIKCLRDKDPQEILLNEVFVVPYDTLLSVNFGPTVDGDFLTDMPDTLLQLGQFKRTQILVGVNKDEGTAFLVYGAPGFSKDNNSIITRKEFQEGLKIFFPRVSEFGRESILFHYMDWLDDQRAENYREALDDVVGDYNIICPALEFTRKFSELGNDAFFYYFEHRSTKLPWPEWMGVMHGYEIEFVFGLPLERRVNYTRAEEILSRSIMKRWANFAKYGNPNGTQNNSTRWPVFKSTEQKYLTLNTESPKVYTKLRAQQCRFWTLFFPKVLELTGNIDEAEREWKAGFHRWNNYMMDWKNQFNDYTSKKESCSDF

Cc1ccc(-c2noc(-c3cccc(OCC4CCN(Cc5cccc(F)c5)CC4)c3)n2)cn1
4: fold change (FC) [11] | fold change (FC) [16] | fold change (FC) [19] | fold change (FC) [23]
inactive: Activity (HepG2-ARE-C8) | Activity (BV-2 [17]) | Activity (BV-2 [24]) | Activity (Mus musculus [25])
8.15 µM: IC50 (Cholinesterase)
0.07 µM: IC50 (Acetylcholinesterase)
8: fold change (FC) [4] | fold change (FC) [5]
active: Activity (Mus musculus [2]) | Activity (Mus musculus [3]) | Activity (SH-SY5Y [6]) Dose-Dependent Effect | Activity (Mus musculus [7]) | Activity (Mus musculus [9]) | Activity (SH-SY5Y [10]) | Activity (Mus musculus [12]) | Activity (Mus musculus [13]) | Activity [14] | Activity [15] | Activity [18] | Activity (Mus musculus [21]) | Activity [22]
Non-Toxic: Activity [1] | Activity [8] | Activity (PC-12) | Activity [20]
